This is an account of results in patent US8242078B2, “Therapeutics to inhibit MLL-menin interaction for treating leukemia” (The University of Chicago, priority 2006, dated 2012).

Entries after “also recorded” stand apart in the source; their conditions may differ. Peptide text beside a SMILES is read from it.

The subject of data set [1] is normal human CD34+ cells. Description: Erythroid differentiation of normal human CD34+ cells, day 10. The data set is classed as cell-based. As to conditions: 7.5 μm or 10 μm. How it is done:
(§1) To assess the effects of TAT-MLL peptide on hematopoiesis, normal human CD34^+ cells were incubated with either the TAT-MLL peptide or the TAT-scrambled peptide at a concentration of either 7.5 μm or 10 μm. There was no effect of either the TAT-MLL peptide or the TAT-scrambled peptide on myeloid or erythroid differentiation. […] CD14-PE, CD15-FITC, CD71-FITC and GlyA (CD235a)-PE antibodies were obtained from Becton Dickinson

Data set [2] has as its system normal human CD34+ cells. Description: Myeloid differentiation of normal human CD34+ cells, day 10. The data set is classed as cell-based. As to conditions: 7.5 μm or 10 μm. As for the experimental part: as §1
For data set [3], the target named is T1, interaction of transfected MLL with endogenous menin (Homo sapiens, UniProt O00255).
T1 construct: endogenous in cells; host or cells: 293 cells (lysate; cells transfected with FLAG-MLL 1-330)
T1 sequence (O00255 1-610): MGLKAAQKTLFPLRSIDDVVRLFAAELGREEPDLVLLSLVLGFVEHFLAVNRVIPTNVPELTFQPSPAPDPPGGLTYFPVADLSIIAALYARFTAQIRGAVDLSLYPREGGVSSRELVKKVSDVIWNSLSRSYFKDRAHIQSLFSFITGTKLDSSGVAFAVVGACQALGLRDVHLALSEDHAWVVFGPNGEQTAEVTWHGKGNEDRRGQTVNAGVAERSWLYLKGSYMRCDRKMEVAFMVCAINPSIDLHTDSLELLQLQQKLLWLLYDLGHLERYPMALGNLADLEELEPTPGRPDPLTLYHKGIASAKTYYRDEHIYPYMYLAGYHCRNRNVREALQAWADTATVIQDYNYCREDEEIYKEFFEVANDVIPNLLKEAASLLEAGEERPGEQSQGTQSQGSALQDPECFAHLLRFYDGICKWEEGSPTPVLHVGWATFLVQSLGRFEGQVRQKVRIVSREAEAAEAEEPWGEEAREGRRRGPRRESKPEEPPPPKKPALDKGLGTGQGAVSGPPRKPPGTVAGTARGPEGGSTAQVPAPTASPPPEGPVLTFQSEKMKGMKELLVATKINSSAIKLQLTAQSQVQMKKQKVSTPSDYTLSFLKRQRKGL
Description: Disruption of binding of transfected FLAG-tagged MLL 1-330 to endogenous menin (anti-FLAG immunoprecipitation, anti-menin Western blot). As to conditions: each peptide tested at 10, 20, and 30 μM. How it is done: To determine the precise domain that mediates the binding of MLL to menin, a series of peptides from the N-terminus of MLL were synthesized. To assess disruption of binding of transfected MLL to endogenous menin, a FLAG-tagged MLL 1-330 construct was transfected into 293 cells and the cell lysates were incubated with a series of peptides listed below or with water as a control. Cell lysates were immunoprecipitated with anti-FLAG antibody (Sigma), separated by SDS-PAGE and blotted with an anti-menin antibody (Bethyl Laboratories Inc, or Santa-Cruz). The amino acid numbers from the N-terminus of MLL are indicated below (preceding the amino acid sequence) for the peptides analyzed for their ability to disrupt the interaction of MLL and menin.
Conditional inactivation of menin results in the reversal of the transforming properties of MLL fusion proteins. A high affinity menin binding domain has been localized to the N-terminal residues of MLL, and deletion of residues 6 through 10 of MLL prevents MLL-ELL from transforming hematopoietic progenitor cells. To target the MLL-menin interaction, a series of peptides were developed for the potential to block the interaction of menin with MLL. To establish the activity of these peptides, lysates of cells transfected with FLAG-tagged N-terminal MLL sequences were examined. The lysates were immunoprecipitated with a FLAG antibody, incubated with either an MLL peptide or a control scrambled peptide, and then blotted with an anti-menin antibody. […] To examine the activity of the TAT-MLL peptide, mouse and human leukemia cell lines were treated with the TAT-MLL peptide. […] (#TIB-202, American Type Culture Collection, Manassas, Va.).
For orientation: In western blotting, separated proteins are transferred to a membrane and probed.

The next data set deals with Leukemia cell lines. In words: Relative growth inhibition of TAT-MLL vs TAT-MLL mutant (MTS cell proliferation assay). It counts as cell-based. (Tetrazolium dyes change colour on reduction, which living cells bring about.)

Turning to `C[C@H](NC(=O)[C@H](CCCNC(=N)N)NC(=O)CNC(=O)CNC(=O)[C@H](CCCNC(=N)N)NC(=O)[C@H](CCCNC(=N)N)NC(=O)[C@H](CCCNC(=N)N)NC(=O)[C@H](CCC(N)=O)NC(=O)[C@H](CCCNC(=N)N)NC(=O)[C@H](CCCNC(=N)N)NC(=O)[C@H](CCCCN)NC(=O)[C@H](CCCCN)NC(=O)[C@@H](N)CCCNC(=N)N)C(=O)N[C@@H](Cc1ccccc1)C(=O)N[C@@H](CCCNC(=N)N)C(=O)N1CCC[C@H]1C(=O)N[C@@H](CS)C(=O)N1CCC[C@H]1C(=O)N[C@@H](CCCNC(=N)N)C(=O)N[C@@H](Cc1c[nH]c2ccccc12)C(=O)NCC(=O)O` [TAT-scrambled, RKKRRQRRR-GG-RAFRPCPRWG (SEQ ID NO: 18), reference compound] (H-RKKRRQRRRGGRAFRPCPRWG-OH), the “effect on erythroid differentiation (in words)” value in the data set on normal human CD34+ cells [1] is listed as “no effect”. The “effect on myeloid differentiation (in words)” value in the data set with normal human CD34+ cells [2] is on record as “no effect”.
With “RKKRRQRRR-GG-CRWRFGARGG (SEQ ID NO: 16) (RKKRRQRRRGGCRWRFGARGG) [TAT-MLL-G 5-14, TAT-MLL 5-14 peptide with prolines replaced by glycines, used as a control, reference compound]”, the “inhibition of the binding of transfected MLL 1-330 to endogenous menin (Western blot, FIG. 2)” value in data set [3] is “did not inhibit the binding of MLL1-330 with menin; also recorded: did not block the interaction of MLL with menin”. In the data set with Leukemia cell lines, the “effect on proliferation, TAT-MLL vs TAT-MLL mutant (FIG. 6)” value is given as “significantly decreases the effect of the peptide on proliferation”.
